EPA's ToxValDB 9.5 (doi:10.2903/j.efsa.2008.185r)
Several values for one entry are separate records, joined by “and”; a condition that tells them apart may be missing. Equal entries are not always repeated.

Key:
[1] = test system: Anas platyrhynchos; details: short-term; oral; feed; mortality
[2] = test system: Apis mellifera; details: acute; duration: 48 hours; oral; unspecified; mortality
[3] = test system: Canidae; details: oral, Dog Other, clinical chemistry
[4] = test system: Colinus virginianus; details: mortality
[5] = test system: Coturnix coturnix; details: acute, oral, mortality
[6] = test system: Daphnia magna; details: chronic/long-term; duration: 21 days; reproduction
[7] = test system: Mus musculus; details: acute, oral, mortality
[8] = test system: Oncorhynchus mykiss
[9] = test system: Rattus norvegicus; details: for LD50: acute, oral
[10] = test system: Tagia sp.; details: acute; duration: 14 days; mortality
[11] = test system: Aphidius rhopalosiphi; test: LR50; higher = less toxic; details: not reported; mortality
[12] = test system: Typhlodromus pyri; test: LR50; higher = less toxic; details: not reported; mortality

Work on `Cc1nnc(-c2ccccc2)c(=O)n1N` [Metamitron] yielded an LD50 [1] of over 1590 mg/kg-day, an LD50 [2] of over 97.2 µg/piece and an NOAEL ([3]; chronic, duration: 2 years, diet) of 3 mg/kg-day. For the same compound, the NOAEL ([3]; subchronic, duration: 90 days) was 3.6 mg/kg-day, the LD50 ([4]; acute, oral, diet) was over 904 mg/kg-day and the NOAEL ([4]; reproduction developmental) was 81.5 mg/kg-day. For the same compound, the LD50 ([5]; F) was 1300 mg/kg-day, the LD50 ([5]; M) was 1360 mg/kg-day and the NOEC [6] was 10 mg/L. It also gave an LD50 ([7]; M) of 691 mg/kg-day, an LD50 [7] of 644 mg/kg-day and an LC50 ([8]; acute, duration: 96 hours, mortality) of over 190 µg/mL. It also gave an NOEC ([8]; chronic/long-term, duration: 21 days, growth) of 7 mg/L, an LD50 ([9]; F, mortality) of 1480 mg/kg-day and an LD50 ([9]; M, mortality) of 1180 mg/kg-day. For the same compound, the LD50 ([9]; mortality) was < 2000 mg/kg-day and 4320 mg/kg-day, the NOAEL ([9]; chronic, F, mortality) was 53.8 mg/kg-day and the NOAEL ([9]; chronic, M, mortality) was 36.4 mg/kg-day. For the same compound, the NOAEL ([9]; reproduction developmental, body weight) was 10 mg/kg-day, the LC50 [10] was 914 mg/kg and the LR50 [11] was 14400 g/ha. For the same compound, the LR50 [12] was 14400 g/ha.
